In general, Kd refers to the equilibrium constant for the complex coming apart.

*1 amine or outer side, *2 acyl side, *3 side chain or, on linkers, in order; H or OH if unused. Where a SMILES comes first, the peptide text is derived from it. Bridges are numbered along the chain shown (N, C = ends). [ ]: non-standard residue; d: D form. X3 = NC(=O)Cn1cc(C[C@H](N[*:1])C(=O)[*:2])c2ccccc21; Phe(3,4-(OMe)2) = COc1ccc(C[C@H](N)C(=O)O)cc1OC; X5 = O=C([C@H](Cc1cn(CCO)c2ccccc12)N[*:1])[*:2]; NMePhe(3-Cl) = CN[C@@H](Cc1cccc(Cl)c1)C(=O)O; NMeW = CN[C@@H](Cc1c[nH]c2ccccc12)C(=O)O; Lys(N3) = [N-]=[N+]=NCCCC[C@H](N)C(=O)O; NMeY = CN[C@@H](Cc1ccc(O)cc1)C(=O)O; NMeF = CN[C@@H](Cc1ccccc1)C(=O)O; PEG4 = NCCOCCOCCOCCOCCC(=O)O; Aib = CC(C)(N)C(=O)O

The source of these data is US20230203098A1, “HUMAN TRANSFERRIN RECEPTOR BINDING PEPTIDE” (priority 2020, published 2023).

transferrin receptor (hTfR), sequence (P02786 whole entry): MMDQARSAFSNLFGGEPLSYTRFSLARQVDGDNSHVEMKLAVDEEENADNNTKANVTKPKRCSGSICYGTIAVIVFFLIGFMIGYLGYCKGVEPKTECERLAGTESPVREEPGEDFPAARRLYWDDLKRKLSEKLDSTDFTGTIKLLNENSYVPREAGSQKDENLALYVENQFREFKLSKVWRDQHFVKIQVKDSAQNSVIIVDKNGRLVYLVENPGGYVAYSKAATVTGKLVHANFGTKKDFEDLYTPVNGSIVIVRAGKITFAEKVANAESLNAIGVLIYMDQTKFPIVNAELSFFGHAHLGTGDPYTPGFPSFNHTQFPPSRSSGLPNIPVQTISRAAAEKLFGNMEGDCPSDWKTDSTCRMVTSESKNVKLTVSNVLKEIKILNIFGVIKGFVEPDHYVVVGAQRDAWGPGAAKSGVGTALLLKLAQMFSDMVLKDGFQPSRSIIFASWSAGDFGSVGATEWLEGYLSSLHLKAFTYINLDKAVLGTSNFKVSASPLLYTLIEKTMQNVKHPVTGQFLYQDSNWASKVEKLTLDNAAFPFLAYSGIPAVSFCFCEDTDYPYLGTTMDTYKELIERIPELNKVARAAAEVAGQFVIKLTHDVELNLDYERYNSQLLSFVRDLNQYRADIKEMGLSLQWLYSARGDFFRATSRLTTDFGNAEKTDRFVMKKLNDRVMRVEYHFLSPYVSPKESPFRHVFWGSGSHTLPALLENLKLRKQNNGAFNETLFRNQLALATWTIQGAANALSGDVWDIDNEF

The experiment concerns the target transferrin receptor (hTfR) (Homo sapiens, UniProt P02786). The experiment in a line: Intermolecular interaction evaluation test between transferrin receptor (hTfR) and peptide by surface plasmon resonance (SPR). It is filed as binding. Particulars: surface plasmon resonance, peptide vs hTfR; read-out: KD value, hTfR binding by SPR (class symbol). An outline of the steps:
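hTfR captured on Ni-NTA chip then amine-coupled; peptides run single-cycle kinetics at 5–100 nM in 10 mM HEPES pH 8.0, 150 mM NaCl, 0.05% Tween 20, 0.1% BSA, 1.0% DMSO. KD from least-squares curve fitting of sensorgrams.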
A general note: Surface plasmon resonance follows binding to a sensor surface in real time, without labels.
On to `CC[C@H](C)[C@@H]1NC(=O)[C@H](Cc2ccc(O)cc2)NC(=O)[C@H](Cc2ccc(O)cc2)NC(=O)[C@H](CC(N)=O)NC(=O)[C@H](Cc2c[nH]c3ccccc23)NC(=O)[C@H](C(C)C)NC(=O)[C@H](Cc2ccccc2)N(C)C(=O)[C@H](C(C)C)NC(=O)[C@H](C)NC(=O)CSC[C@@H](C(=O)NCC(=O)N[C@@H](CCCCN=[N+]=[N-])C(N)=O)NC(=O)[C@H](Cc2ccc(O)cc2)N(C)C(=O)[C@H](Cc2ccc(O)cc2)NC(=O)[C@H](CCCNC(=N)N)NC(=O)[C@H](CCCNC(=N)N)NC(=O)[C@H]([C@@H](C)CC)NC1=O` [compound 297], for which the Kd is 1 to 100 nM.
The result for `CC[C@H](C)[C@@H]1NC(=O)[C@H](Cc2ccc(O)cc2)NC(=O)[C@H](Cc2ccc(O)cc2)NC(=O)[C@H](CC(N)=O)NC(=O)[C@H](Cc2c[nH]c3ccccc23)NC(=O)[C@H](C(C)C)NC(=O)[C@H](Cc2ccccc2)N(C)C(=O)[C@H](C(C)C)NC(=O)[C@H](C)NC(=O)CSC[C@@H](C(=O)N(C)CC(=O)N(C)CC(=O)N(C)CC(N)=O)NC(=O)[C@H](Cc2ccc(O)cc2)N(C)C(=O)[C@H](Cc2ccc(O)cc2)NC(=O)[C@H](CCCNC(=N)N)NC(=O)[C@H](CCCNC(=N)N)NC(=O)[C@H]([C@@H](C)CC)NC1=O` [compound 298] reads 1 to 100 nM; that for `CC[C@H](C)[C@@H]1NC(=O)[C@H](Cc2ccc(O)cc2)NC(=O)[C@H](Cc2ccc(O)cc2)NC(=O)[C@H](CC(N)=O)NC(=O)[C@H](Cc2c[nH]c3ccccc23)N(C)C(=O)[C@H](C(C)C)NC(=O)[C@H](Cc2ccccc2)N(C)C(=O)[C@H](C(C)C)NC(=O)[C@H](C)NC(=O)CSC[C@@H](C(N)=O)NC(=O)[C@H](Cc2ccc(O)cc2)N(C)C(=O)[C@H](Cc2ccc(O)cc2)NC(=O)[C@H](CCCNC(=N)N)NC(=O)[C@H](CCCNC(=N)N)NC(=O)[C@H]([C@@H](C)CC)NC1=O` [compound 299], 1 to 100 nM.
`CC[C@H](C)[C@@H]1NC(=O)[C@H](Cc2ccc(O)cc2)NC(=O)[C@H](Cc2ccc(O)cc2)NC(=O)[C@H](CC(N)=O)NC(=O)[C@H](Cc2c[nH]c3ccccc23)N(C)C(=O)[C@H](C(C)C)NC(=O)[C@H](Cc2ccccc2)N(C)C(=O)[C@H](C(C)C)NC(=O)[C@H](C)NC(=O)CSC[C@@H](C(N)=O)NC(=O)[C@H](Cc2ccc(O)cc2)N(C)C(=O)[C@H](Cc2ccc(O)cc2)NC(=O)[C@H](CCCNC(=N)N)NC(=O)[C@H](CCCCN)NC(=O)[C@H]([C@@H](C)CC)NC1=O` [compound 300]: the dissociation constant (Kd) fell in the range of 1 to 100 nM.
The same measure for `CC[C@H](C)[C@@H]1NC(=O)[C@H](Cc2ccc(OC)cc2)NC(=O)[C@H](Cc2ccc(O)cc2)NC(=O)[C@H](CC(N)=O)NC(=O)[C@H](Cc2c[nH]c3ccccc23)N(C)C(=O)[C@H](C(C)C)NC(=O)[C@H](Cc2ccccc2)N(C)C(=O)[C@H](C(C)C)NC(=O)[C@H](C)NC(=O)CSC[C@@H](C(=O)NCCOCCOCCOCCOCCC(N)=O)NC(=O)[C@H](Cc2ccc(O)cc2)N(C)C(=O)[C@H](Cc2ccccc2)NC(=O)[C@@H](CCCNC(=N)N)NC(=O)C(C)(C)NC(=O)[C@H]([C@@H](C)CC)NC1=O` [compound 301] ({CH2CO}-AV[NMeF]V[NMeW]NYY(Me)II[Aib][dR]F[NMeY]C[PEG4]-NH2; thioether N-15): 1 to 100 nM; for `CC[C@H](C)[C@@H]1NC(=O)[C@H](Cc2ccc(O)cc2)NC(=O)[C@H](Cc2ccc(O)cc2)NC(=O)[C@H](CC(N)=O)NC(=O)[C@H](Cc2c[nH]c3ccccc23)N(C)C(=O)[C@H](C(C)C)NC(=O)[C@H](Cc2cc(Cl)cc(Cl)c2)N(C)C(=O)[C@H](C(C)C)NC(=O)[C@H](C)NC(=O)CSC[C@@H](C(N)=O)NC(=O)[C@H](Cc2ccc(O)cc2)N(C)C(=O)[C@H](Cc2ccccc2)NC(=O)[C@@H](CCCNC(=N)N)NC(=O)[C@H](CCCNC(=N)N)NC(=O)[C@H]([C@@H](C)CC)NC1=O` [compound 302]: 1 to 100 nM; for `CC[C@H](C)[C@@H]1NC(=O)[C@H](Cc2ccc(OC)cc2)NC(=O)[C@H](Cc2ccc(O)cc2)NC(=O)[C@H](CC(N)=O)NC(=O)[C@H](Cc2cn(CC(=O)O)c3ccccc23)NC(=O)[C@H](C(C)C)NC(=O)[C@H](Cc2cccc(Cl)c2)N(C)C(=O)[C@H](C(C)C)NC(=O)[C@H](C)NC(=O)CSC[C@@H](C(N)=O)NC(=O)[C@H](Cc2ccc(O)cc2)N(C)C(=O)[C@H](Cc2ccccc2)NC(=O)[C@@H](CCCNC(=N)N)NC(=O)C(C)(C)NC(=O)[C@H]([C@@H](C)CC)NC1=O` [compound 303]: 1 to 100 nM.
The same measure for `CC[C@H](C)[C@@H]1NC(=O)[C@H](Cc2ccc(OC)cc2)NC(=O)[C@H](Cc2ccc(O)cc2)NC(=O)[C@H](CC(N)=O)NC(=O)[C@H](Cc2cn(CC(N)=O)c3ccccc23)NC(=O)[C@H](C(C)C)NC(=O)[C@H](Cc2cccc(Cl)c2)N(C)C(=O)[C@H](C(C)C)NC(=O)[C@H](C)NC(=O)CSC[C@@H](C(N)=O)NC(=O)[C@H](Cc2ccc(O)cc2)N(C)C(=O)[C@H](Cc2ccccc2)NC(=O)[C@@H](CCCNC(=N)N)NC(=O)C(C)(C)NC(=O)[C@H]([C@@H](C)CC)NC1=O` [compound 304] ({CH2CO}-AV[NMePhe(3-Cl)]V[X3]NYY(Me)II[Aib][dR]F[NMeY]C-NH2; thioether N-15): 100 to 1000 nM; for `CC[C@H](C)[C@@H]1NC(=O)[C@H](Cc2ccc(OC)cc2)NC(=O)[C@H](Cc2ccc(O)cc2)NC(=O)[C@H](CC(N)=O)NC(=O)[C@H](Cc2cn(CCO)c3ccccc23)NC(=O)[C@H](C(C)C)NC(=O)[C@H](Cc2cccc(Cl)c2)N(C)C(=O)[C@H](C(C)C)NC(=O)[C@H](C)NC(=O)CSC[C@@H](C(N)=O)NC(=O)[C@H](Cc2ccc(O)cc2)N(C)C(=O)[C@H](Cc2ccccc2)NC(=O)[C@@H](CCCNC(=N)N)NC(=O)C(C)(C)NC(=O)[C@H]([C@@H](C)CC)NC1=O` [compound 305] ({CH2CO}-AV[NMePhe(3-Cl)]V[X5]NYY(Me)II[Aib][dR]F[NMeY]C-NH2; thioether N-15): 100 to 1000 nM.
The result for `CC[C@H](C)[C@@H]1NC(=O)[C@H](Cc2ccc(OC)cc2)NC(=O)[C@H](Cc2ccc(O)cc2)NC(=O)[C@H](CC(N)=O)NC(=O)[C@H](Cc2cn(CC(=O)O)c3ccccc23)NC(=O)[C@H](C(C)C)NC(=O)[C@H](Cc2cccc(Cl)c2)N(C)C(=O)[C@H](C(C)C)NC(=O)[C@H](C)NC(=O)CSC[C@@H](C(N)=O)NC(=O)[C@H](Cc2ccc(O)cc2)N(C)C(=O)[C@H](Cc2ccccc2)NC(=O)[C@@H](CCCNC(=N)N)NC(=O)[C@H](CCCNC(=N)N)NC(=O)[C@H]([C@@H](C)CC)NC1=O` [compound 306] reads 1 to 100 nM.
Take `CC[C@H](C)[C@@H]1NC(=O)[C@H](Cc2ccc(O)cc2)NC(=O)[C@H](Cc2ccc(O)cc2)NC(=O)[C@H](CC(N)=O)NC(=O)[C@H](Cc2c[nH]c3ccccc23)NC(=O)[C@H](C(C)C)NC(=O)[C@H](Cc2cccc(Cl)c2)N(C)C(=O)[C@H](C(C)C)NC(=O)[C@H](C)NC(=O)CSC[C@@H](C(N)=O)NC(=O)[C@H](Cc2ccc(O)cc2)N(C)C(=O)[C@H](Cc2ccccc2)NC(=O)[C@H](CCCCN)NC(=O)[C@H](CC(=O)O)NC(=O)[C@H]([C@@H](C)CC)NC1=O` [compound 307]: the Kd lay within 1 to 100 nM.
The same measure for `CC[C@H](C)[C@@H]1NC(=O)[C@H](Cc2ccc(OC)cc2)NC(=O)[C@H](Cc2ccc(O)cc2)NC(=O)[C@H](CC(N)=O)NC(=O)[C@H](Cc2c[nH]c3ccccc23)NC(=O)[C@H](C(C)C)NC(=O)[C@H](Cc2cccc(Cl)c2)N(C)C(=O)[C@H](C(C)C)NC(=O)[C@H](C)NC(=O)CSC[C@@H](C(=O)NCCOCCOCCOCCOCCC(N)=O)NC(=O)[C@H](Cc2ccc(O)cc2)N(C)C(=O)[C@H](Cc2ccccc2)NC(=O)[C@@H](CCCNC(=N)N)NC(=O)C(C)(C)NC(=O)[C@H]([C@@H](C)CC)NC1=O` [compound 310] ({CH2CO}-AV[NMePhe(3-Cl)]VWNYY(Me)II[Aib][dR]F[NMeY]C[PEG4]-NH2; thioether N-15): greater than 1000 nM; for `CC[C@H](C)[C@@H]1NC(=O)[C@H](Cc2ccc(OC)cc2)NC(=O)[C@H](Cc2ccc(O)cc2)NC(=O)[C@H](CC(N)=O)NC(=O)[C@H](Cc2c[nH]c3ccccc23)NC(=O)[C@H](C(C)C)NC(=O)[C@H](Cc2cccc(Cl)c2)N(C)C(=O)[C@H](C(C)C)NC(=O)[C@H](C)NC(=O)CSC[C@@H](C(=O)NCC(=O)NCC(=O)N[C@@H](CO)C(=O)NCC(=O)N[C@@H](CO)C(=O)NCC(=O)N[C@@H](CCCCN=[N+]=[N-])C(N)=O)NC(=O)[C@H](Cc2ccc(O)cc2)N(C)C(=O)[C@H](Cc2ccccc2)NC(=O)[C@@H](CCCCN)NC(=O)[C@H](CCCNC(=N)N)NC(=O)[C@H]([C@@H](C)CC)NC1=O` [compound 313]: 1 to 100 nM; for `CC[C@H](C)[C@@H]1NC(=O)[C@H](Cc2ccc(OC)cc2)NC(=O)[C@H](Cc2ccc(O)cc2)NC(=O)[C@H](CC(N)=O)NC(=O)[C@H](Cc2c[nH]c3ccccc23)NC(=O)[C@H](C(C)C)NC(=O)[C@H](Cc2cccc(Cl)c2)N(C)C(=O)[C@H](C(C)C)NC(=O)[C@H](C)NC(=O)CSC[C@@H](C(=O)NCC(=O)NCC(=O)N[C@@H](CO)C(=O)NCC(=O)N[C@@H](CO)C(=O)NCC(=O)N[C@@H](CCCCN=[N+]=[N-])C(N)=O)NC(=O)[C@H](Cc2ccc(O)cc2)N(C)C(=O)[C@H](Cc2ccccc2)NC(=O)[C@@H](CCCNC(=N)N)NC(=O)[C@H](CCCCN)NC(=O)[C@H]([C@@H](C)CC)NC1=O` [compound 314] ({CH2CO}-AV[NMePhe(3-Cl)]VWNYY(Me)IIK[dR]F[NMeY]CGGSGSG[Lys(N3)]-NH2; thioether N-15; C-terminus assumed): 1 to 100 nM.
Regarding `CC[C@H](C)[C@@H]1NC(=O)[C@H](Cc2ccc(OC)c(OC)c2)NC(=O)[C@H](Cc2ccc(O)cc2)NC(=O)[C@H](CC(N)=O)NC(=O)[C@H](Cc2c[nH]c3ccccc23)N(C)C(=O)[C@H](C(C)C)NC(=O)[C@H](Cc2cccc(Cl)c2)N(C)C(=O)[C@H](C(C)C)NC(=O)[C@H](C)NC(=O)CSC[C@@H](C(N)=O)NC(=O)[C@H](Cc2ccc(O)cc2)N(C)C(=O)[C@H](Cc2ccccc2)NC(=O)[C@@H](CCCNC(=N)N)NC(=O)[C@H](CCCNC(=N)N)NC(=O)[C@H]([C@@H](C)CC)NC1=O` [compound 318] ({CH2CO}-AV[NMePhe(3-Cl)]V[NMeW]NY[Phe(3,4-(OMe)2)]IIR[dR]F[NMeY]C-NH2; thioether N-15), the Kd lay within 1 to 100 nM.
